Data published in the NIST ThermoML archive (doi:10.1016/j.tca.2013.07.012).

Assay: xn = mol fraction of the nth substance listed
Details: 101 kPa, Liquid, Vibrating tube method

OCC(O)CO [glycerol] + O
mass density [kg/m3]
Details | 298.15 K | 308.15 K | 323.15 K | 333.15 K | 348.15 K
x1 = 0.00209 | – | 996.42 | 990.39 | 985.55 | 977.18
x1 = 0.00439 | 1002.17 | 999.06 | 992.99 | 988.13 | 979.74
x1 = 0.0051 | 1002.98 | 999.87 | 993.77 | 988.9 | 980.52
x1 = 0.00657 | 1004.67 | 1001.52 | 995.4 | 990.52 | 982.12
x1 = 0.01072 | 1009.34 | 1006.11 | 999.9 | 994.98 | 986.55
x1 = 0.01633 | 1015.48 | 1012.13 | 1005.81 | 1000.85 | 992.29
x1 = 0.03504 | 1034.47 | 1030.74 | 1024.15 | 1018.99 | 1010.23
x1 = 0.05086 | 1049.05 | 1045.04 | 1038.23 | 1032.9 | 1024.05
x1 = 0.06775 | 1063.23 | 1058.94 | 1051.86 | 1046.46 | 1037.5
x1 = 0.1127 | 1095.24 | 1090.4 | 1082.82 | 1077.08 | 1067.8
x1 = 0.1559 | 1119.87 | 1114.62 | 1106.34 | 1100.45 | 1090.81
x1 = 0.206 | 1142.86 | 1137.3 | 1128.58 | 1122.53 | 1112.88
x1 = 0.256 | 1161.34 | 1155.48 | 1146.57 | 1140.39 | 1130.45
x1 = 0.3311 | 1183 | 1177.16 | 1168.09 | 1161.69 | 1151.47
x1 = 0.4012 | 1198.45 | 1192.55 | 1183.35 | 1177 | 1166.73
x1 = 0.4907 | 1213.75 | 1207.7 | 1198.19 | 1191.81 | 1181.85
x1 = 0.5828 | 1225.65 | 1219.6 | 1210.22 | 1203.79 | 1193.86
x1 = 0.6857 | 1236.32 | 1230.18 | 1220.77 | 1214.31 | 1204.27
x1 = 0.7494 | 1241.81 | 1235.6 | 1226.23 | 1219.8 | 1209.73
x1 = 0.8101 | 1246.48 | 1240.19 | 1230.76 | 1224.29 | 1214.26
x1 = 0.8528 | 1249.4 | 1243.15 | 1233.67 | 1227.21 | 1217.21
x1 = 0.882 | 1251.36 | 1245.07 | 1235.56 | 1229.08 | 1219.1
x1 = 0.9143 | 1253.31 | 1247.06 | 1237.53 | 1231.07 | 1221.08
x1 = 0.9408 | 1254.8 | 1248.55 | 1239.01 | 1232.59 | 1222.63
x1 = 0.9578 | 1255.73 | 1249.47 | 1239.93 | 1233.52 | 1223.59
x1 = 0.9792 | 1256.89 | 1250.63 | 1241.1 | 1234.68 | 1224.76
x1 = 0.9895 | 1257.41 | 1251.16 | 1241.61 | 1235.2 | 1225.28
x1 = 1 | 1257.91 | 1251.66 | 1242.11 | 1235.71 | 1225.79
